Reference: ChEMBL document CHEMBL1136820, “The role of 2',3'-unsaturation on the antiviral activity of anti-HIV nucleosides against 3TC-resistant mutant (M184V)” (Bioorg Med Chem Lett, 2003)

Experiments:
[1] = tested on: HIV-1 reverse transcriptase (Human immunodeficiency virus 1); test: Ratio for inhibition of HIV-1 RT to that of type and HIV-1 RT M184V mutant was determined
[2] = tested on: Human immunodeficiency virus type 1 reverse transcriptase (Human immunodeficiency virus 1), Q72547 [M184V]; test: In vitro antiviral activity against HIV-1 Reverse transcriptase M184V mutant
[3] = target: Human immunodeficiency virus type 1 reverse transcriptase (Human immunodeficiency virus 1) (UniProt Q72547); test: In vitro antiviral activity against HIV-1 Reverse transcriptase wild type

SMILES	FI [1]	EC90 [2] [µM]	EC90 [3] [µM]
Nc1nc(=O)n([C@@H]2C=C[C@H](CO)O2)cc1F	0.8	–	–
Nc1ccn([C@@H]2O[C@H](CO)C=C2F)c(=O)n1	0.23	1.8	8
Nc1ccn(C2SC(CO)C=C2F)c(=O)n1 (configuration not stated)	25	125	5
